Data: the supplement of paper PMC10307832

Legend:
Test in all cases: relative viability (nuclei count vs DMSO), 5 days (fraction); higher = more cells survive
NCI-H1755 = tested on: NCI-H1755
Method in brief: (§1)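 Medians of duplicate plates are given as relative viability. That measure is the nuclei count in treated wells divided by the count in vehicle wells. Counts were taken on 4× images of lung cancer cell lines in 1536-well plates, 5 days after pin-tool dosing the day after seeding with one drug alone or a fixed anchor-drug dose plus five library-drug doses (not always all listed) in √10 steps.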

LCLC-103H = tested on: LCLC-103H
Method in brief: as §1

NCI-H1395 = tested on: NCI-H1395
Method in brief: as §1

A549 = tested on: A549
Method in brief: as §1

HCC-44 = tested on: HCC-44
Method in brief: as §1

EKVX = tested on: EKVX
Method in brief: as §1

NCI-H1623 = tested on: NCI-H1623
Method in brief: as §1

UMC-11 = tested on: UMC-11
Method in brief: as §1

HCC-15 = tested on: HCC-15
Method in brief: as §1

NCI-H1299 = tested on: NCI-H1299
Method in brief: as §1

NCI-H1703 = tested on: NCI-H1703
Method in brief: as §1

EBC-1 = tested on: EBC-1
Method in brief: as §1

IA-LM = tested on: IA-LM
Method in brief: as §1

Calu-6 = tested on: Calu-6
Method in brief: as §1

For `Nc1ccn([C@@H]2O[C@H](CO)[C@@H](O)[C@@H]2O)c(=O)n1` [Cytarabine] + N=C(N)NC(=N)NCCc1ccccc1 [Phenformin] (partner 250 µM), the relative viability (NCI-H1755; first compound 0.005 µM) was 0.621, the relative viability (NCI-H1755; first compound 0.01581 µM) was 0.413 and the relative viability (NCI-H1755; first compound 0.05 µM) was 0.466. It also gave a relative viability (NCI-H1755; first compound 0.1581 µM) of 0.274, a relative viability (NCI-H1755; first compound 0.5 µM) of 0.236 and a relative viability (LCLC-103H; first compound 0.005 µM) of 0.332. For the same compound, the relative viability (LCLC-103H; first compound 0.01581 µM) was 0.365, the relative viability (LCLC-103H; first compound 0.05 µM) was 0.335 and the relative viability (LCLC-103H; first compound 0.1581 µM) was 0.31. The relative viability (LCLC-103H; first compound 0.5 µM) was 0.311, the relative viability (NCI-H1395; first compound 0.005 µM) was 0.411 and the relative viability (NCI-H1395; first compound 0.01581 µM) was 0.392. It also gave a relative viability (NCI-H1395; first compound 0.05 µM) of 0.353, a relative viability (NCI-H1395; first compound 0.1581 µM) of 0.319 and a relative viability (NCI-H1395; first compound 0.5 µM) of 0.31. The relative viability (A549; first compound 0.005 µM) was 0.104, the relative viability (A549; first compound 0.01581 µM) was 0.127 and the relative viability (A549; first compound 0.05 µM) was 0.106. For the same compound, the relative viability (A549; first compound 0.1581 µM) was 0.0512, the relative viability (A549; first compound 0.5 µM) was 0.0301 and the relative viability (HCC-44; first compound 0.005 µM) was 0.161. For the same compound, the relative viability (HCC-44; first compound 0.01581 µM) was 0.15, the relative viability (HCC-44; first compound 0.05 µM) was 0.142 and the relative viability (HCC-44; first compound 0.1581 µM) was 0.113. It also gave a relative viability (HCC-44; first compound 0.5 µM) of 0.108, a relative viability (EKVX; first compound 0.005 µM) of 0.217 and a relative viability (EKVX; first compound 0.01581 µM) of 0.192. For the same compound, the relative viability (EKVX; first compound 0.05 µM) was 0.172, the relative viability (EKVX; first compound 0.1581 µM) was 0.211 and the relative viability (EKVX; first compound 0.5 µM) was 0.207. It also gave a relative viability (NCI-H1623; first compound 0.005 µM) of 0.432, a relative viability (NCI-H1623; first compound 0.01581 µM) of 0.396 and a relative viability (NCI-H1623; first compound 0.05 µM) of 0.357. For the same compound, the relative viability (NCI-H1623; first compound 0.1581 µM) was 0.402, the relative viability (NCI-H1623; first compound 0.5 µM) was 0.431 and the relative viability (UMC-11; first compound 0.005 µM) was 0.245. The relative viability (UMC-11; first compound 0.01581 µM) was 0.232, the relative viability (UMC-11; first compound 0.05 µM) was 0.205 and the relative viability (UMC-11; first compound 0.1581 µM) was 0.195. It also gave a relative viability (UMC-11; first compound 0.5 µM) of 0.159, a relative viability (HCC-15; first compound 0.005 µM) of 0.454 and a relative viability (HCC-15; first compound 0.01581 µM) of 0.436. The relative viability (HCC-15; first compound 0.05 µM) was 0.516, the relative viability (HCC-15; first compound 0.1581 µM) was 0.349 and the relative viability (HCC-15; first compound 0.5 µM) was 0.31.

`CC(=O)O[C@@]12CO[C@@H]1C[C@H](O)[C@@]1(C)C(=O)[C@H](O)C3=C(C)[C@@H](OC(=O)[C@H](O)[C@@H](NC(=O)OC(C)(C)C)c4ccccc4)C[C@@](O)([C@@H](OC(=O)c4ccccc4)[C@H]21)C3(C)C` [Docetaxel] + COc1cc2c(Oc3ccc(NC(=O)C4(C(=O)Nc5ccc(F)cc5)CC4)cc3F)ccnc2cc1OCCCN1CCOCC1 [Foretinib] (partner 0.25 µM) was tested, and the relative viability (NCI-H1755; first compound 0.0002 µM) was 0.901, the relative viability (NCI-H1755; first compound 0.000632 µM) was 0.88 and the relative viability (NCI-H1755; first compound 0.002 µM) was 0.564. The relative viability (NCI-H1755; first compound 0.006325 µM) was 0.351, the relative viability (NCI-H1755; first compound 0.02 µM) was 0.373 and the relative viability (LCLC-103H; first compound 0.0002 µM) was 0.674. It also gave a relative viability (LCLC-103H; first compound 0.000632 µM) of 0.61, a relative viability (LCLC-103H; first compound 0.002 µM) of 0.485 and a relative viability (LCLC-103H; first compound 0.006325 µM) of 0.339. It also gave a relative viability (LCLC-103H; first compound 0.02 µM) of 0.272, a relative viability (NCI-H1395; first compound 0.0002 µM) of 0.883 and a relative viability (NCI-H1395; first compound 0.000632 µM) of 0.874. For the same compound, the relative viability (NCI-H1395; first compound 0.002 µM) was 0.904, the relative viability (NCI-H1395; first compound 0.006325 µM) was 0.456 and the relative viability (NCI-H1395; first compound 0.02 µM) was 0.342. It also gave a relative viability (NCI-H1299; first compound 0.0002 µM) of 1.1, a relative viability (NCI-H1299; first compound 0.000632 µM) of 1.14 and a relative viability (NCI-H1299; first compound 0.002 µM) of 1. For the same compound, the relative viability (NCI-H1299; first compound 0.006325 µM) was 0.62, the relative viability (NCI-H1299; first compound 0.02 µM) was 0.295 and the relative viability (A549; first compound 0.0002 µM) was 0.957. It also gave a relative viability (A549; first compound 0.000632 µM) of 0.795, a relative viability (A549; first compound 0.002 µM) of 0.0591 and a relative viability (A549; first compound 0.006325 µM) of 0.0413. For the same compound, the relative viability (A549; first compound 0.02 µM) was 0.0241, the relative viability (NCI-H1703; first compound 0.000632 µM) was 0.351 and the relative viability (NCI-H1703; first compound 0.002 µM) was 0.341. For the same compound, the relative viability (NCI-H1703; first compound 0.006325 µM) was 0.179, the relative viability (NCI-H1703; first compound 0.02 µM) was 0.154 and the relative viability (EKVX; first compound 0.0002 µM) was 1.07. It also gave a relative viability (EKVX; first compound 0.000632 µM) of 0.887, a relative viability (EKVX; first compound 0.002 µM) of 0.411 and a relative viability (EKVX; first compound 0.006325 µM) of 0.234. For the same compound, the relative viability (EKVX; first compound 0.02 µM) was 0.13, the relative viability (NCI-H1623; first compound 0.0002 µM) was 0.869 and the relative viability (NCI-H1623; first compound 0.000632 µM) was 0.834. The relative viability (NCI-H1623; first compound 0.002 µM) was 0.584, the relative viability (NCI-H1623; first compound 0.006325 µM) was 0.427 and the relative viability (NCI-H1623; first compound 0.02 µM) was 0.284. The relative viability (UMC-11; first compound 0.0002 µM) was 0.934, the relative viability (UMC-11; first compound 0.000632 µM) was 0.943 and the relative viability (UMC-11; first compound 0.002 µM) was 0.307. It also gave a relative viability (UMC-11; first compound 0.006325 µM) of 0.245, a relative viability (UMC-11; first compound 0.02 µM) of 0.186 and a relative viability (EBC-1; first compound 0.0002 µM) of 0.0936. The relative viability (EBC-1; first compound 0.000632 µM) was 0.0902, the relative viability (EBC-1; first compound 0.002 µM) was 0.0988 and the relative viability (EBC-1; first compound 0.006325 µM) was 0.0924. The relative viability (EBC-1; first compound 0.02 µM) was 0.09, the relative viability (HCC-15; first compound 0.0002 µM) was 0.906 and the relative viability (HCC-15; first compound 0.000632 µM) was 0.472. The relative viability (HCC-15; first compound 0.002 µM) was 0.233, the relative viability (HCC-15; first compound 0.006325 µM) was 0.27 and the relative viability (HCC-15; first compound 0.02 µM) was 0.162. It also gave a relative viability (IA-LM; first compound 0.0002 µM) of 1.05, a relative viability (IA-LM; first compound 0.000632 µM) of 0.386 and a relative viability (IA-LM; first compound 0.002 µM) of 0.0546. For the same compound, the relative viability (IA-LM; first compound 0.006325 µM) was 0.0457, the relative viability (IA-LM; first compound 0.02 µM) was 0.0491 and the relative viability (Calu-6; first compound 0.0002 µM) was 0.897. The relative viability (Calu-6; first compound 0.000632 µM) was 0.627, the relative viability (Calu-6; first compound 0.002 µM) was 0.165 and the relative viability (Calu-6; first compound 0.006325 µM) was 0.081. For the same compound, the relative viability (Calu-6; first compound 0.02 µM) was 0.0747.
